Measured values as given in PubChem BioAssay (NCI).
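Protocol summary: plate cells (96-well), add compound at 5 concentrations, incubate 48 h, interpolate endpoints linearly. TGI denotes the concentration required for complete inhibition of growth.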

Assays:
Assay in all cases: DTP human tumour cell line panel, 48 h
OVCAR-8 ovarian = tested on: OVCAR-8 ovarian
M14 melanoma = tested on: M14 melanoma
ACHN renal = tested on: ACHN renal
IGROV1 ovarian = tested on: IGROV1 ovarian
OVCAR-5 ovarian = tested on: OVCAR-5 ovarian
A498 renal = tested on: A498 renal
UO-31 renal = tested on: UO-31 renal
K-562 leukemia = tested on: K-562 leukemia
MOLT-4 leukemia = tested on: MOLT-4 leukemia
SN12C renal = tested on: SN12C renal
SK-MEL-28 melanoma = tested on: SK-MEL-28 melanoma
LOX IMVI melanoma = tested on: LOX IMVI melanoma
EKVX NSCLC = tested on: EKVX NSCLC
CAKI-1 renal = tested on: CAKI-1 renal
SK-OV-3 ovarian = tested on: SK-OV-3 ovarian
NCI-H226 lung = tested on: NCI-H226 lung
T-47D breast = tested on: T-47D breast
MDA-N = tested on: MDA-N
HS 578T breast = tested on: HS 578T breast
SR leukemia = tested on: SR leukemia

| SMILES | TGI (OVCAR-8 ovarian) [µM] | TGI (M14 melanoma) [µM] | TGI (ACHN renal) [µM] | TGI (IGROV1 ovarian) [µM] | TGI (OVCAR-5 ovarian) [µM] | TGI (A498 renal) [µM] | TGI (UO-31 renal) [µM] | TGI (K-562 leukemia) [µM] | TGI (MOLT-4 leukemia) [µM] | TGI (SN12C renal) [µM] | TGI (SK-MEL-28 melanoma) [µM] | TGI (LOX IMVI melanoma) [µM] | TGI (EKVX NSCLC) [µM] | TGI (CAKI-1 renal) [µM] | TGI (SK-OV-3 ovarian) [µM] | TGI (NCI-H226 lung) [µM] | TGI (T-47D breast) [µM] | TGI (MDA-N) [µM] | TGI (HS 578T breast) [µM] | TGI (SR leukemia) [µM] |
| --- | --- | --- | --- | --- | --- | --- | --- | --- | --- | --- | --- | --- | --- | --- | --- | --- | --- | --- | --- | --- |
| c1cc2nnsc2s1 | > 100 | > 100 | > 100 | > 100 | > 100 | > 100 | > 100 | > 100 | > 100 | > 100 | > 100 | > 100 | > 100 | > 100 | > 100 | > 100 | – | – | – | – |
| Cc1ccc(Cc2nn(C)c(=O)n2N)cc1 | > 100 | > 100 | > 100 | > 100 | > 100 | > 100 | > 100 | > 100 | – | > 100 | > 100 | > 100 | > 100 | > 100 | > 100 | > 100 | > 100 | > 100 | – | – |
| CCOC(=O)C1(C/C=C/CCl)CCCC1=O (stereo not given) | 38.2 | 38.5 | 36.6 | 42 | 39.1 | > 100 | 39.7 | – | > 100 | 59.1 | 50.6 | 30.4 | 37.9 | 79.5 | > 100 | 36.2 | 51.3 | 35.1 | > 100 | – |
| COc1ccc2[nH]c3c(c2c1)CC(=O)N1CCCC(CC3O)C1 (stereo not given) | > 100 | – | > 100 | > 100 | – | > 100 | > 100 | > 100 | – | > 100 | > 100 | > 100 | – | > 100 | > 100 | > 100 | > 100 | > 100 | > 100 | – |
| O=C(O)CC(NC(=O)/C(=C/c1ccccc1)NC(=O)c1ccccc1)C(=O)O (stereo not given) | > 100 | > 100 | > 100 | > 100 | > 100 | > 100 | > 100 | > 100 | > 100 | > 100 | > 100 | > 100 | > 100 | > 100 | > 100 | > 100 | > 100 | > 100 | > 100 | – |
| CC(=O)c1cc2c(s1)C(=O)c1sccc1C2=O | 0.227 | – | – | 0.337 | 0.158 | 2.77 | 0.0908 | 0.174 | 0.292 | 0.0294 | – | 0.0249 | 0.475 | 0.413 | 3.2 | 0.407 | 0.7 | – | 0.198 | – |
| CC(=O)OCCOCNC(=S)N/N=C/c1cc([N+](=O)[O-])ccc1O | > 100 | > 100 | > 100 | > 100 | > 100 | > 100 | > 100 | > 100 | – | > 100 | > 100 | > 100 | > 100 | – | > 100 | > 100 | – | – | – | – |
| O=c1[nH]c(=O)n(C2CC(O)C(CO)O2)cc1C(F)(C(F)(F)F)C(F)(F)F (stereo not given) | > 100 | > 100 | > 100 | > 100 | > 100 | > 100 | > 100 | > 100 | > 100 | > 100 | > 100 | > 100 | > 100 | > 100 | > 100 | > 100 | – | – | – | > 100 |
| CC(C)CCNC(=O)C(CC(C)C)NC(=O)[C@H]1O[C@@H]1C(=O)O (stereo not given in full) | > 100 | > 100 | – | > 100 | > 100 | > 100 | > 100 | > 100 | > 100 | > 100 | > 100 | – | > 100 | > 100 | > 100 | > 100 | > 100 | > 100 | > 100 | – |
| CN/C=C(\C(=O)c1ccc(OC)c(OC)c1)c1ccc(OC)cc1 | 30.4 | 37 | 75.1 | > 100 | – | 28.2 | 48.6 | 27.1 | 62 | 31.7 | 39.7 | 29.8 | > 100 | – | > 100 | 41.5 | – | – | – | 60.7 |
| O=C(Cc1ccccc1)NN1C(=O)/C(=C\c2cccc([N+](=O)[O-])c2)SC1=Nc1ccccc1 | > 100 | > 100 | > 100 | > 100 | > 100 | > 100 | > 100 | > 100 | > 100 | > 100 | > 100 | – | > 100 | – | > 100 | > 100 | > 100 | > 100 | > 100 | – |
| CC(=O)Nc1ccc(-c2nnc(SCC(=O)Nc3cccc(Cl)c3)o2)cc1 | > 100 | 29.5 | 28.9 | 32.5 | 40.3 | 34 | 76.9 | > 100 | 51.8 | 31.6 | 33.8 | 26.8 | 45 | 33.2 | > 100 | 48.8 | – | – | – | – |
| COc1ccc(N2C(=O)C3c4[nH]c5ccccc5c4C4CC(C)(C)CC(C)(C)C4C3C2=O)cc1 (stereo not given) | 11.1 | 41.8 | 31.9 | 65.5 | – | 30.1 | > 100 | > 100 | 36.6 | 33.2 | 27.7 | – | 38.2 | – | 38.2 | 29.3 | – | – | – | 25.7 |
| C[C@@H]1C(=O)O[C@H]1[C@H](O)CO | > 100 | > 100 | > 100 | – | > 100 | > 100 | – | – | > 100 | > 100 | > 100 | > 100 | > 100 | > 100 | > 100 | – | > 100 | > 100 | – | – |
| COC1(C)C(=O)N2C1N(C(=O)OC(C)(C)C)CC2(C)C (stereo not given) | > 100 | > 100 | > 100 | > 100 | > 100 | > 100 | > 100 | > 100 | > 100 | > 100 | > 100 | 53.1 | > 100 | > 100 | > 100 | > 100 | – | – | – | – |
| CCOc1cn(C2OC(CO)C(O)C2O)c(=O)[nH]c1=O (stereo not given) | > 100 | > 100 | > 100 | > 100 | > 100 | > 100 | > 100 | > 100 | > 100 | > 100 | > 100 | > 100 | > 100 | > 100 | > 100 | > 100 | – | – | – | – |
| O=[N+]([O-])c1ccc(N/N=C2/CC3=C2CCCCCCCCCC3)c([N+](=O)[O-])c1 | > 100 | > 100 | > 100 | > 100 | > 100 | > 100 | > 100 | > 100 | > 100 | > 100 | > 100 | – | > 100 | > 100 | > 100 | > 100 | > 100 | > 100 | > 100 | – |
| Cc1ccc(OCC2OC(n3cnc4nc(Nc5ccc(Cl)c(Cl)c5)nc(Cl)c43)CC2Oc2ccc(C)cc2)cc1 (stereo not given) | > 100 | > 100 | > 100 | > 100 | > 100 | – | > 100 | > 100 | > 100 | > 100 | > 100 | – | > 100 | > 100 | > 100 | > 100 | > 100 | > 100 | > 100 | – |
| C[Si](C)(C)c1ccc(-c2c3ccc(-c4cc(Br)cc(Br)c4)nc3nc3nc(-c4cc(Br)cc(Br)c4)ccc23)cc1 | – | > 100 | > 100 | – | > 100 | > 100 | > 100 | – | – | > 100 | > 100 | – | > 100 | > 100 | > 100 | > 100 | > 100 | > 100 | – | – |
| CC[C@]12C=CCN3CCC4(c5cc([C@@]6(C(=O)OC)CC7CN(CCc8c6[nH]c6ccccc86)C[C@@H]6CCCC[C@H]76)c(OC)cc5N(C)C4[C@](O)(C(=O)OC)C1OC(C)=O)[C@@H]32 (stereo not given in full) | – | 3.14 | 5.53 | – | 8.83 | – | 8.58 | – | > 100 | 18.3 | 17.1 | 12.4 | 22.8 | 16.7 | – | 15.3 | 38.5 | < 0.01 | < 0.01 | – |
| COC(=O)[C@@]1(C)C(=O)CC[C@@H]1C=O | > 100 | > 100 | > 100 | > 100 | > 100 | > 100 | > 100 | > 100 | > 100 | > 100 | – | > 100 | > 100 | > 100 | > 100 | > 100 | – | – | – | > 100 |
| O=C(NCCC1CN(C(=O)OCc2ccccc2)c2ccccc21)OCc1ccccc1 (stereo not given) | > 100 | > 100 | > 100 | > 100 | > 100 | > 100 | > 100 | > 100 | > 100 | – | > 100 | – | > 100 | > 100 | > 100 | – | – | > 100 | > 100 | – |
| CCOC(=O)C1=C(C)NC2=C(C(=O)N(c3ccccc3)C2c2ccccc2)C1c1ccccc1 (stereo not given) | 53.4 | 32.1 | 27 | 40.8 | 29.8 | – | 39.1 | > 100 | 56.2 | 35.8 | 34.8 | 34.4 | 44.2 | 31.6 | 31.4 | 37.1 | – | – | – | 45.5 |
| CC(=O)OCC1OC(OC2C(COC(C)=O)OC(Sc3ccccc3C)C(OC(C)=O)C2OC(C)=O)C(OC(C)=O)C(OC(C)=O)C1OC(C)=O (stereo not given) | – | > 100 | > 100 | > 100 | > 100 | > 100 | > 100 | > 100 | > 100 | > 100 | > 100 | – | > 100 | > 100 | > 100 | > 100 | – | – | – | > 100 |
| C=CCC1(Sc2ccccn2)Sc2ccc3ccccc3c2-c2c(ccc3ccccc23)S1 | > 100 | > 100 | > 100 | > 100 | > 100 | > 100 | > 100 | > 100 | > 100 | > 100 | > 100 | > 100 | > 100 | > 100 | > 100 | > 100 | > 100 | – | > 100 | > 100 |
| CC(=O)Nc1ccc(C(=O)NN2C(=O)CSC2c2ccc(O)cc2)cc1 (stereo not given) | > 100 | > 100 | > 100 | > 100 | > 100 | > 100 | > 100 | > 100 | > 100 | > 100 | > 100 | – | > 100 | – | > 100 | > 100 | > 100 | > 100 | > 100 | – |
| C/C(N)=C/C(=O)c1[nH]c(C(=O)O)cc1C1CCN(Cc2ccccc2)C1=O (stereo not given) | 50.8 | 39 | > 100 | 94.1 | > 100 | > 100 | 75.2 | 59 | 57.9 | – | 72.5 | – | > 100 | > 100 | 71.3 | – | 74.9 | 69.7 | > 100 | – |
| CN(C)Cc1cc(C(=O)/C=C/c2ccc(Cl)c(Cl)c2)cc(CN(C)C)c1O | 4.9 | 4.34 | 11.6 | 12.4 | 20.9 | 11.1 | 5.39 | 4.74 | 10.5 | 7.83 | 10.3 | 2 | 20.8 | 4.08 | – | 13.5 | 19.9 | 10.9 | 8.74 | – |
